The target of experiment [1] is GDP-bound NRAS wild-type protein (Homo sapiens, UniProt P01111). Put plainly: Binding to NRAS by surface plasmon resonance (SPR), Single Cycle Kinetics. The settings on record: ratio of KD for GDP-bound NRAS wild-type protein to KD for KRAS, SPR.
In experiment [2] the test system is human lung cancer strain NCI-H441. Put plainly: cells. The settings on record: NCI-H441, 96 h, read-out: NCI-H441 IC50 (nM), NCI-H441 cell proliferation, 4 days, CellTiter-Glo.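 Also: cell proliferation inhibition after four days measured by CellTiter-Glo.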
The target of experiment [3] is GDP-bound HRAS wild-type protein (Homo sapiens, UniProt P01112). Put plainly: Binding to HRAS by surface plasmon resonance (SPR), Single Cycle Kinetics. The settings on record: ratio of KD for GDP-bound HRAS wild-type protein to KD for KRAS, SPR.
The target in experiment [4] is GDP-bound KRAS wild-type protein (Homo sapiens, UniProt P01116). Put plainly: Binding to KRAS by surface plasmon resonance (SPR), Single Cycle Kinetics. The settings on record: SPR, Single Cycle Kinetics, GDP-bound KRAS wild-type protein; read-out: KRAS KD.

We go through eleven compounds from patent publication US20240158446A1, “CYCLIC COMPOUND HAVING SELECTIVE INHIBITORY ACTION ON KRAS OVER HRAS AND NRAS” (CHUGAI SEIYAKU KABUSHIKI KAISHA, priority 2021, published 2024).

Chain of GDP-bound NRAS wild-type protein (P01111 whole entry): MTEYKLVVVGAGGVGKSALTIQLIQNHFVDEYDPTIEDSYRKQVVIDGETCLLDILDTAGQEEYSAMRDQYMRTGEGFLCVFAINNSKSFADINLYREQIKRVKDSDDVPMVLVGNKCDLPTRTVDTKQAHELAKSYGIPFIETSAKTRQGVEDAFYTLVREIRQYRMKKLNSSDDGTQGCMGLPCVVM
Chain of GDP-bound HRAS wild-type protein (P01112 whole entry): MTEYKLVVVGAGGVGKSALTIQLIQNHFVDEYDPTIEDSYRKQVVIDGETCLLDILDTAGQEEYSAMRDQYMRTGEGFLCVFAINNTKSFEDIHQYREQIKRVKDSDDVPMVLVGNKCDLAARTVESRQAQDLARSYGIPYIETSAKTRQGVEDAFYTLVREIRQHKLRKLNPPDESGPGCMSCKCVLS
Chain of GDP-bound KRAS wild-type protein (P01116 whole entry): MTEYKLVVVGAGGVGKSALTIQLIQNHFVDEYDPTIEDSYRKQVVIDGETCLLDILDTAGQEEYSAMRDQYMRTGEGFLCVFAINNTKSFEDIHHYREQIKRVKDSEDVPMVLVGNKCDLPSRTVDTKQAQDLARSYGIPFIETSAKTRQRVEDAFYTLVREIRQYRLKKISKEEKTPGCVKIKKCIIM

As to `CCCN(C)C(=O)[C@@H]1CC(=O)N(C)[C@@H](CC)C(=O)N[C@@H]([C@@H](C)CC)C(=O)N(C)CC(=O)N(C)[C@H]2C/C=C\CCN(C2=O)[C@@H](Cc2ccc(C(F)(F)F)cc2)C(=O)N(C)CC(=O)N[C@@H](CCc2cc(F)c(C(F)(F)F)c(F)c2)C(=O)N2C[C@H](OCC)C[C@H]2C(=O)NC2(CC(C)(C)C2)C(=O)N(C)[C@@H](C2CCCC2)C(=O)N1C` [PP1670], in experiment [1], the “NRAS/KRAS (KD ratio)” value was “A (a compound having 10 or more and less than 20 is denoted as A)”. Moreover, in experiment [2], the IC50 is 6.7 nM. The “HRAS/KRAS (KD ratio)” value in experiment [3] is “A (a compound having 10 or more and less than 20 is denoted as A)”. Besides, the Kd in experiment [4] worked out at 0.1 nM.
With `CCO[C@@H]1C[C@H]2C(=O)NC3(CC(C)(C)C3)C(=O)N(C)[C@@H](C3CCCC3)C(=O)N(C)[C@H](C(=O)N(C)CC)CC(=O)N(C)[C@@H](COC)C(=O)N[C@@H]([C@@H](C)CC)C(=O)N(C)CC(=O)N(C)[C@H]3C/C=C\CCN(C3=O)[C@@H](Cc3ccc(C(F)(F)F)cc3)C(=O)N(C)CC(=O)N[C@@H](CCc3cc(F)c(C(F)(F)F)c(F)c3)C(=O)N2C1` [PP1671], the “NRAS/KRAS (KD ratio)” value in experiment [1] is “A (a compound having 10 or more and less than 20 is denoted as A)”. For the same compound, the IC50 in experiment [2] was determined as 3 nM. In addition, the “HRAS/KRAS (KD ratio)” value in experiment [3] is “A (a compound having 10 or more and less than 20 is denoted as A)”. In experiment [4], the dissociation constant Kd amounted to 0.077 nM.
For `CCCN(C)C(=O)[C@@H]1CC(=O)N(C)[C@@H](COC)C(=O)N[C@@H]([C@@H](C)CC)C(=O)N(C)CC(=O)N(C)[C@H]2C/C=C\CCN(C2=O)[C@@H](Cc2ccc(C(F)(F)F)cc2)C(=O)N(C)CC(=O)N[C@@H](CCc2cc(F)c(C(F)(F)F)c(F)c2)C(=O)N2C[C@H](OCC)C[C@H]2C(=O)NC2(CC(C)(C)C2)C(=O)N(C)[C@@H](C2CCCC2)C(=O)N1C` [PP1672], the “NRAS/KRAS (KD ratio)” value in experiment [1] is “A (a compound having 10 or more and less than 20 is denoted as A)”. Also, the IC50 in experiment [2] amounted to 6 nM. Moreover, the “HRAS/KRAS (KD ratio)” value in experiment [3] is “A (a compound having 10 or more and less than 20 is denoted as A)”. Further, the Kd in experiment [4] is 0.087 nM.
For the compound `CCCOC[C@H]1C(=O)N[C@@H]([C@@H](C)CC)C(=O)N(C)CC(=O)N(C)[C@H]2C/C=C\CCN(C2=O)[C@@H](Cc2ccc(C(F)(F)F)cc2)C(=O)N(C)CC(=O)N[C@@H](CCc2cc(F)c(C(F)(F)F)c(F)c2)C(=O)N2C[C@H](OCC)C[C@H]2C(=O)NC2(CC(C)(C)C2)C(=O)N(C)[C@@H](C2CCCC2)C(=O)N(C)[C@H](C(=O)N(C)CCC)CC(=O)N1C` [PP1673], the “NRAS/KRAS (KD ratio)” value in experiment [1] was “A (a compound having 10 or more and less than 20 is denoted as A)”. Moreover, in experiment [2], the IC50 amounted to 6 nM. The “HRAS/KRAS (KD ratio)” value in experiment [3] was “A (a compound having 10 or more and less than 20 is denoted as A)”. The Kd in experiment [4] was found to be 0.16 nM.
Take `CCO[C@@H]1C[C@H]2C(=O)NC3(CC(C)(C)C3)C(=O)N(C)[C@@H](C3CCCC3)C(=O)N(C)[C@H](C(=O)N(C)C)CC(=O)N(C)[C@@H](C)C(=O)N[C@@H]([C@@H](C)CC)C(=O)N(C)CC(=O)N(C)[C@H]3C/C=C\CCN(C3=O)[C@@H](Cc3ccc(C(F)(F)F)cc3)C(=O)N(C)CC(=O)N[C@@H](CCc3ccc(C(F)(F)F)c(OC)c3)C(=O)N2C1` [PP1674]: the “NRAS/KRAS (KD ratio)” value in experiment [1] is “A (a compound having 10 or more and less than 20 is denoted as A)”. Besides, in experiment [2], the IC50 came out at 5.1 nM. In addition, in experiment [3], the “HRAS/KRAS (KD ratio)” value is “A (a compound having 10 or more and less than 20 is denoted as A)”. Also, the equilibrium dissociation constant (Kd) in experiment [4] is 0.036 nM.
As to `CCO[C@@H]1C[C@H]2C(=O)NC3(CC(C)(C)C3)C(=O)N(C)[C@@H](C3CCCC3)C(=O)N(C)[C@H](C(=O)N(C)C)CC(=O)N(C)[C@@H](CC(F)(F)F)C(=O)N[C@@H]([C@@H](C)CC)C(=O)N(C)CC(=O)N(C)[C@H]3C/C=C\CCN(C3=O)[C@@H](Cc3ccc(C(F)(F)F)cc3)C(=O)N(C)CC(=O)N[C@@H](CCc3ccc(C(F)(F)F)c(OC)c3)C(=O)N2C1` [PP1675], the “NRAS/KRAS (KD ratio)” value in experiment [1] is “A (a compound having 10 or more and less than 20 is denoted as A)”. The IC50 in experiment [2] came out at 3 nM. For the same compound, the “HRAS/KRAS (KD ratio)” value in experiment [3] was “B (a compound having 3 or more and less than 10 is denoted as B)”. In experiment [4], the dissociation constant (Kd) turned out to be 0.071 nM.
Turning to `CCC[C@H]1C(=O)N[C@@H]([C@@H](C)CC)C(=O)N(C)CC(=O)N(C)[C@H]2C/C=C\CCN(C2=O)[C@@H](Cc2ccc(C(F)(F)F)cc2)C(=O)N(C)CC(=O)N[C@@H](CCc2ccc(C(F)(F)F)c(OC)c2)C(=O)N2C[C@H](OCC)C[C@H]2C(=O)NC2(CC(C)(C)C2)C(=O)N(C)[C@@H](C2CCCC2)C(=O)N(C)[C@H](C(=O)N(C)CC)CC(=O)N1C` [PP1676], the “NRAS/KRAS (KD ratio)” value in experiment [1] was “A (a compound having 10 or more and less than 20 is denoted as A)”. Besides, in experiment [2], the IC50 was found to be 5 nM. For the same compound, the “HRAS/KRAS (KD ratio)” value in experiment [3] was “A (a compound having 10 or more and less than 20 is denoted as A)”. In addition, the Kd in experiment [4] was 0.12 nM.
`C#CC[C@H]1C(=O)N[C@@H]([C@@H](C)CC)C(=O)N(C)CC(=O)N(C)[C@H]2C/C=C\CCN(C2=O)[C@@H](Cc2ccc(C(F)(F)F)cc2)C(=O)N(C)CC(=O)N[C@@H](CCc2ccc(C(F)(F)F)c(OC)c2)C(=O)N2C[C@H](OCC)C[C@H]2C(=O)NC2(CC(C)(C)C2)C(=O)N(C)[C@@H](C2CCCC2)C(=O)N(C)[C@H](C(=O)N(C)C)CC(=O)N1C` [PP1677]: in experiment [1], the “NRAS/KRAS (KD ratio)” value was “A (a compound having 10 or more and less than 20 is denoted as A)”. In addition, in experiment [2], the IC50 came to 3.4 nM. Further, the “HRAS/KRAS (KD ratio)” value in experiment [3] is “A (a compound having 10 or more and less than 20 is denoted as A)”. The dissociation constant Kd in experiment [4] amounted to 0.042 nM.
For the compound `CCO[C@@H]1C[C@H]2C(=O)NC3(CC(C)(C)C3)C(=O)N(C)[C@@H](C3CCCC3)C(=O)N(C)[C@H](C(=O)N(C)CC)CC(=O)N(C)[C@@H](CC3CC3)C(=O)N[C@@H]([C@@H](C)CC)C(=O)N(C)CC(=O)N(C)[C@H]3C/C=C\CCN(C3=O)[C@@H](Cc3ccc(C(F)(F)F)cc3)C(=O)N(C)CC(=O)N[C@@H](CCc3ccc(C(F)(F)F)c(OC)c3)C(=O)N2C1` [PP1678], the “NRAS/KRAS (KD ratio)” value in experiment [1] is “A (a compound having 10 or more and less than 20 is denoted as A)”. In addition, the IC50 in experiment [2] stood at 5.6 nM. Further, the “HRAS/KRAS (KD ratio)” value in experiment [3] is “B (a compound having 3 or more and less than 10 is denoted as B)”. In addition, the Kd in experiment [4] is 0.17 nM.
Take `CCO[C@@H]1C[C@H]2C(=O)NC3(CC(C)(C)C3)C(=O)N(C)[C@@H](C3CCCC3)C(=O)N(C)[C@H](C(=O)N(C)CC)CC(=O)N(C)[C@@H](COC)C(=O)N[C@@H]([C@@H](C)CC)C(=O)N(C)CC(=O)N(C)[C@H]3C/C=C\CCN(C3=O)[C@@H](Cc3ccc(C(F)(F)F)cc3)C(=O)N(C)CC(=O)N[C@@H](CCc3ccc(C(F)(F)F)c(OC)c3)C(=O)N2C1` [PP1679]: the “NRAS/KRAS (KD ratio)” value in experiment [1] was “A (a compound having 10 or more and less than 20 is denoted as A)”. The IC50 in experiment [2] worked out at 3.1 nM. For the same compound, the “HRAS/KRAS (KD ratio)” value in experiment [3] was “A (a compound having 10 or more and less than 20 is denoted as A)”. Also, in experiment [4], the Kd is 0.065 nM.
In the case of `CC[C@H](C)[C@@H]1NC(=O)[C@H](CC(F)(F)F)N(C)C(=O)C[C@@H](C(=O)N(C)C)N(C)C(=O)[C@H](C2CCCC2)N(C)C(=O)C2(CC(C)(C)C2)NC(=O)[C@@H]2C[C@H](C)CN2C(=O)[C@H](CCc2cc(F)c(C(F)(F)F)c(F)c2)NC(=O)CN(C)C(=O)[C@H](Cc2ccc(C(F)(F)F)cc2)N2CC/C=C\C[C@@H](C2=O)N(C)C(=O)CN(C)C1=O` [PP1682], the “NRAS/KRAS (KD ratio)” value in experiment [1] was “AA (a compound having 20 or more is denoted as AA)”. For the same compound, in experiment [2], the IC50 was found to be 2.6 nM. Moreover, the “HRAS/KRAS (KD ratio)” value in experiment [3] was “A (a compound having 10 or more and less than 20 is denoted as A)”. Also, the equilibrium dissociation constant (Kd) in experiment [4] worked out at 0.082 nM.
